The values that follow come from patent US10894786B2, “Substituted pyrazole derivatives as selective CDK12/13 inhibitors” (Aurigene Discovery Technologies Limited, priority 2018, dated 2021).

pIC50, pKd: −log10 of the molar value.

For assay [1], the target named is T1, CDK12 (Homo sapiens (Human), UniProt Q9NYV4). Description: Biochemical assay for CDK12 (IC50 determination), LANCE TR-FRET. The conditions noted are these: for pIC50: ATP 100 μM, 60 min pre-incubation. The protocol:
The inhibitory activity of the test compounds was assessed by the LANCE TR-FRET assay, which detects the ATP-dependent phosphorylation of an ULight-4E-BP1 (Thr37/Thr46) substrate peptide (100 nM) by CDK12 (30 nM). Briefly, the enzyme reaction was run in reaction buffer (25 mM HEPES (pH 7.5), 10 mM MgCl2, 0.01% BSA, 0.01% Triton x, 1 mM DTT). The assay was performed in 384-well plate format. The end concentration of the ATP substrate was 100 μM, and that of the ULight-4E-BP1 (Thr37/Thr46) substrate peptide was 100 nM, and of CDK12 was 30 nM. Pre-incubation of the compound and enzyme was performed for 60 min at room temperature. After 60 min incubation at room temperature, the reaction was terminated by the addition of 40 mM EDTA and 0.5 nM Eu-labeled anti-phospho-eIF4E-binding protein (Thr37/46) antibody in LANCE detection buffer. […] The readout was calculated as (acceptor counts/donor counts)×1000. The IC50 values were derived by fitting a sigmoidal dose-response curve to a plot of assay readout over inhibitor concentration.
Target sequence in this assay (Q9NYV4 whole entry, looked up, species assumed): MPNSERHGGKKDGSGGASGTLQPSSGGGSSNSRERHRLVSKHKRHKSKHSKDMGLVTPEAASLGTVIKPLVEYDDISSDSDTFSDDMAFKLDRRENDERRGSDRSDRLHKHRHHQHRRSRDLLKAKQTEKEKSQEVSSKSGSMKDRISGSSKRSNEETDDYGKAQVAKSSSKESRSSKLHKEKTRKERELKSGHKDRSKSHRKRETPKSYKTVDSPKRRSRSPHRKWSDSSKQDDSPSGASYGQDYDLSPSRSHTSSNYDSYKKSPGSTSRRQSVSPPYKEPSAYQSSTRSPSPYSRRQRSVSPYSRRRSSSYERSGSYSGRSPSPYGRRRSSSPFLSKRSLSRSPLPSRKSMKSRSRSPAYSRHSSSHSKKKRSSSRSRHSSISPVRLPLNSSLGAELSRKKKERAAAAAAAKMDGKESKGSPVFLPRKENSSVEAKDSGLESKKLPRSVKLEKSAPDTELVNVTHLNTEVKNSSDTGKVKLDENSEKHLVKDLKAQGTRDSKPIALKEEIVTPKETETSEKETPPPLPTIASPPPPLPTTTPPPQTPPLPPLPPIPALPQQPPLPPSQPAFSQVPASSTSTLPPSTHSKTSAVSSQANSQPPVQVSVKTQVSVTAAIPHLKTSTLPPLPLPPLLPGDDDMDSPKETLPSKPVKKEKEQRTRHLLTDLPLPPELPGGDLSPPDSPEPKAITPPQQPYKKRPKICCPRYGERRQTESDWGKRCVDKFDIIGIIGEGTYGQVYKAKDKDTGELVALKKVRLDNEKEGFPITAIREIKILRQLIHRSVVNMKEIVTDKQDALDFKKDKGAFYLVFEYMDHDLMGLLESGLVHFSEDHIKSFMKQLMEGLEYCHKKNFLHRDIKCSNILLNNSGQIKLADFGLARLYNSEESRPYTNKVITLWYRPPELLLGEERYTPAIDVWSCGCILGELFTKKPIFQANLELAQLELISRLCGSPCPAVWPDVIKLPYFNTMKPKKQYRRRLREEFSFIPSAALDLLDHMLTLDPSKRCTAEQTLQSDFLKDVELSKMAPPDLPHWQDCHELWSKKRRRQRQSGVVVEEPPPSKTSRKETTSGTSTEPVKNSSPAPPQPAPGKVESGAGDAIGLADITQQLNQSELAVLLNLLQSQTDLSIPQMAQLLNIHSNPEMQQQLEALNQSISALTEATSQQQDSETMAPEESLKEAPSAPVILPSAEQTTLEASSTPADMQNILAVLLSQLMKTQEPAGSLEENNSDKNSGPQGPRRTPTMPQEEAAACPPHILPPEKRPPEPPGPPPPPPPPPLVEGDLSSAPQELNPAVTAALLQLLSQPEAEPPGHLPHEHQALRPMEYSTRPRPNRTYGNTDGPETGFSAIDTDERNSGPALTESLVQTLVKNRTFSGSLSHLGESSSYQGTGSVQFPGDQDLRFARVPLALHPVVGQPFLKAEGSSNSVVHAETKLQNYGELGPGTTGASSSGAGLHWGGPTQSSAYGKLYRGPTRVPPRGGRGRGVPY
Target sequence in this assay (O75909 whole entry partner, looked up, species assumed): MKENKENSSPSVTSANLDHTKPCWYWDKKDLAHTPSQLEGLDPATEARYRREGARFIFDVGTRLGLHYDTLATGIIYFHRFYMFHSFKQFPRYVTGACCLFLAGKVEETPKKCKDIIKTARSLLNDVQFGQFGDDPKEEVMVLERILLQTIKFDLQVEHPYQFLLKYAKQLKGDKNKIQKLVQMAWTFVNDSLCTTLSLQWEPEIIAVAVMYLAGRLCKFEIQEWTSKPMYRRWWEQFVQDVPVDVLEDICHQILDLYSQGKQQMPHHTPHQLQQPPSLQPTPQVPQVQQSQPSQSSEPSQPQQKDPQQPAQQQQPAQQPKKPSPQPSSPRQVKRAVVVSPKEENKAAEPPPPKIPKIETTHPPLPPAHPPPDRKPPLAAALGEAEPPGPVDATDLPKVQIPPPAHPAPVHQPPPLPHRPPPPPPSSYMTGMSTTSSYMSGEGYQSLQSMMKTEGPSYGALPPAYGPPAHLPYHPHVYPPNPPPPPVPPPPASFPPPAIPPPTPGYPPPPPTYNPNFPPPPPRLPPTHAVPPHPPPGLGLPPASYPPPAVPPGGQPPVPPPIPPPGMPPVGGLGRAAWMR
On the technique in general: TR-FRET usually uses a lanthanide donor and a delayed reading to cut background.

A further assay deals with CDK7 (Homo sapiens (Human), UniProt P50613). Description: Biochemical assay for CDK7, LANCE TR-FRET. Particulars: ATP 1 mM/100 μM, 60 min pre-incubation; read-out: CDK 7 IC50. The protocol:
The inhibitory activity of the test compounds was assessed by the LANCE TR-FRET assay, which detects the ATP-dependent phosphorylation of an ULight-myelin basic protein (MBP) substrate peptide (100 nM) by CDK7 (10 nM). Briefly, the enzyme reaction was run in reaction buffer (20 mM HEPES (pH 7.5), 10 mM MgCl2, 0.01% Triton x, 100 μM Sodium Orthovanadate, 1 mM DTT). The assay was performed in 384-well plate. The end concentration of the ATP substrate was 1 mM/100 μM, and that of the ULight-MBP substrate peptide was 100 nM, and of CDK7 was 10 nM. Pre-incubation of the compound and enzyme was performed for 60 min at room temperature. After 60 min incubation at room temperature, the reaction was terminated by the addition of 40 mM EDTA and 1 nM Eu-labeled anti-phospho-MBP-binding protein antibody in the buffer. […] The readout was calculated as (acceptor counts/donor counts)×1000. The IC50 values were derived by fitting a sigmoidal dose-response curve to a plot of assay readout over inhibitor concentration.

In the next assay the target is CDK13 (Homo sapiens (Human), UniProt Q14004). Description: Biochemical assay for CDK13, LanthaScreen Eu Kinase Binding Assay. The conditions noted are these: for pIC50: kinase tracer 236 100 nM; for Ratio CDK7/CDK13: ratio of IC50. The text has this: Binding of an inhibitor to the kinase competes for binding with the tracer, resulting in a loss of FRET signal.
CDK13, sequence (Q14004 whole entry, looked up, species assumed): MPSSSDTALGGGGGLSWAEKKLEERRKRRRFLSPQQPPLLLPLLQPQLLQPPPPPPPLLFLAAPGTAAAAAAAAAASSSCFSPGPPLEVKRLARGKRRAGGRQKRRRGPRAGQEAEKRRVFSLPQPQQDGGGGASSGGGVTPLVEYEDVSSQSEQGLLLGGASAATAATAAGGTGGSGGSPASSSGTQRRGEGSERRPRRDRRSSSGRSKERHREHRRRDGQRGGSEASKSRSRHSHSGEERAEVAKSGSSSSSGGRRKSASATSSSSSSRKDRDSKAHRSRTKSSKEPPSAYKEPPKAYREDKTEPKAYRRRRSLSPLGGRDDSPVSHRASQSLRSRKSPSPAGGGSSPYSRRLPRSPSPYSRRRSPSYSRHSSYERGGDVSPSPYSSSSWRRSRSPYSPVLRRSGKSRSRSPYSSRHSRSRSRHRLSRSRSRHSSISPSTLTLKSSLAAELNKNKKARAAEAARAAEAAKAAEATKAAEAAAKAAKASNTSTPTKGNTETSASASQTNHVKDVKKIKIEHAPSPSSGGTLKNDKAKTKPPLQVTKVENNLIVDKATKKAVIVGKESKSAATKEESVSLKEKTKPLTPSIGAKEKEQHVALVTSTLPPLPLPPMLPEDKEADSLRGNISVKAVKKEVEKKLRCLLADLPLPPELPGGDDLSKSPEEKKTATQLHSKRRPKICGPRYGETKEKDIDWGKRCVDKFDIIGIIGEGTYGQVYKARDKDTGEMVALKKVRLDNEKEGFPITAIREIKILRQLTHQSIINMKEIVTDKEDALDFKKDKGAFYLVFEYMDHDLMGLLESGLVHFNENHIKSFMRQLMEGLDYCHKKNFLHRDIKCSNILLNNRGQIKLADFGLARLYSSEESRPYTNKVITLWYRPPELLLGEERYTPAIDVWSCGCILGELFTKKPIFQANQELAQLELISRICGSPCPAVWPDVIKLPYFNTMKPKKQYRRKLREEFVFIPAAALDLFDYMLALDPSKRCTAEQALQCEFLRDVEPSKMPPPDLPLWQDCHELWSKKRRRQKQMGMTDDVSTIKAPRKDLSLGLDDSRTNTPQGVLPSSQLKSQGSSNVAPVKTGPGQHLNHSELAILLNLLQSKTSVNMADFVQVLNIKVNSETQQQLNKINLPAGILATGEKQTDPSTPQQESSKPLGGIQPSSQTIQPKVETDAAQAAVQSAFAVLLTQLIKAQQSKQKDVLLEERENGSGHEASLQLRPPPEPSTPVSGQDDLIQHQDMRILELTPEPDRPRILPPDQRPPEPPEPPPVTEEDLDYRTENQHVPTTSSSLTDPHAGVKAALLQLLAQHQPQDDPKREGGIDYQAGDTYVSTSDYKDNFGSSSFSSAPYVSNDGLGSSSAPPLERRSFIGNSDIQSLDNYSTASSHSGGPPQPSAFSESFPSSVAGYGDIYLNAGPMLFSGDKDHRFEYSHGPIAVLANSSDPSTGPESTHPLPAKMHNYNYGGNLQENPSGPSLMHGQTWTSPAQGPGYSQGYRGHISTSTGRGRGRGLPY
CDK13, sequence (O75909 whole entry partner, looked up, species assumed): as the sequence (O75909 whole entry partner, looked up, species assumed) above
The target in assay [2] is T1, CDK12. Put plainly: Biochemical assay for CDK12 (Kd determination), kinase-tagged phage/qPCR competition binding. The protocol:
Kinase-tagged T7 phage strains were grown in parallel in 24-well blocks in an E. coli host derived from the BL21 strain. E. coli were grown to log-phase and infected with T7 phage from a frozen stock (multiplicity of infection=0.4) and incubated with shaking at 32° C. until lysis (90-150 minutes). The lysates were centrifuged (6,000×g) and filtered (0.2 μm) to remove cell debris. The remaining kinases were produced in HEK-293 cells and subsequently tagged with DNA for qPCR detection. […] The liganded beads were blocked with excess biotin and washed with blocking buffer (SeaBlock (Pierce), 1% BSA, 0.05% Tween 20, 1 mM DTT) to remove unbound ligand and to reduce non-specific phage binding. […] Test compounds were prepared as 40× stocks in 100% DMSO and directly diluted into the assay. All reactions were performed in polypropylene 384-well plates in a final volume of 0.02 ml. […] The kinase concentration in the eluates was measured by qPCR.
Target sequence in this assay (Q9NYV4 whole entry, species assumed): as the sequence (Q9NYV4 whole entry, looked up, species assumed) above

Assay [3] deals with T1, CDK12. Description: CDK12 plate based target engagement assay in Jurkat cells. The class given is cell-based. Particulars: Jurkat cells, 6 hours. How it is done: Jurkat cells were treated with varying concentrations of the compound for 6 hours. The DMSO concentration was maintained at 0.1%. Cells were harvested and lysed. 200 μg of the lysate was incubated with 1 μM Bio-THZ531 in the presence of 1 mM DTT and incubated on a rocker at 4° C. overnight. 100 μL of this sample was added to pre-washed streptavidin coated plates and incubated at room temperature on a rocker for 2 hours. The plates were washed and incubated with CDK12 antibody for overnight at 4° C. Next day the plate was washed and incubated for 2 hours with HRP labelled anti rabbit secondary antibody. Bio-THZ531 bound CDK12 was determined using TMB substrate. […] Percentage CDK12 occupancy with the test compound was calculated over untreated control. Occupancy 50 was calculated by fitting the dose response data to sigmoidal curve fitting equation using GraphPad Prism software V5.
Target sequence in this assay (Q9NYV4 whole entry, looked up): as the sequence (Q9NYV4 whole entry, looked up, species assumed) above
Target sequence in this assay (O75909 whole entry partner, looked up): as the sequence (O75909 whole entry partner, looked up, species assumed) above

CDK7, sequence (P50613 whole entry, looked up, species assumed): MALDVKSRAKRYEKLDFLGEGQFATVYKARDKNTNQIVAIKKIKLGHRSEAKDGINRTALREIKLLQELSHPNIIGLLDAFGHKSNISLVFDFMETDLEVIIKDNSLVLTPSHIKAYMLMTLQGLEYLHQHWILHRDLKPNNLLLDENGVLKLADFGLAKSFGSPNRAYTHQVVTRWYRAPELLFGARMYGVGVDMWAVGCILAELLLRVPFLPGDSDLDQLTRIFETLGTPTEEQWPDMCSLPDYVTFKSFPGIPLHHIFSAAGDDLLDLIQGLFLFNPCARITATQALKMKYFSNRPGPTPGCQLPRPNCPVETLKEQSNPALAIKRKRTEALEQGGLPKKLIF
CDK7, sequence (P51946 whole entry partner, looked up, species assumed): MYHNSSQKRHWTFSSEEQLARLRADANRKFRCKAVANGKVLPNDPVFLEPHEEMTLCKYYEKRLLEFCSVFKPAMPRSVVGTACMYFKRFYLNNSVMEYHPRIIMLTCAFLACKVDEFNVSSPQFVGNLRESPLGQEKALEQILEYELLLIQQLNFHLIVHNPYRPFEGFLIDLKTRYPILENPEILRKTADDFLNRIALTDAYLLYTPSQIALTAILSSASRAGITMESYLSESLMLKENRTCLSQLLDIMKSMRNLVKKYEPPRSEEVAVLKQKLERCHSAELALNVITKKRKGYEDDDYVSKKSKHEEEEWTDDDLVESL
CDK7, sequence (P51948 whole entry partner, looked up, species assumed): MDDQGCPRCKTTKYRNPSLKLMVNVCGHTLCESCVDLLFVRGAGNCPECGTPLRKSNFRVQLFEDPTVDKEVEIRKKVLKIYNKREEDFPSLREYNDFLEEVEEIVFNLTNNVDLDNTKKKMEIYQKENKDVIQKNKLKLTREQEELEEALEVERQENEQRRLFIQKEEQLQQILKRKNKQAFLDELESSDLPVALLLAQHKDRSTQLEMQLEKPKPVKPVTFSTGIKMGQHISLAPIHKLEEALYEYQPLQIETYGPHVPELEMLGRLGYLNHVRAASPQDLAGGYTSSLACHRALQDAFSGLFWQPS

The term pIC50 denotes the negative decadic logarithm of the IC50, by convention in mol/L. What is called pKd is −log10 of the Kd, conventionally taken in molar units. A lower pKd goes with a high Kd. As for `C=CC(=O)N1CC=C(c2ccc(C(C)C(=O)Nc3cc(C4CC4)[nH]n3)cn2)CC1` (single isomer, unassigned) [Compound 5, 2-(1′-acryloyl-1′,2′,3′,6′-tetrahydro-[2,4′-bipyridin]-5-yl)-N-(5-cyclopropyl-1H-pyrazol-3-yl)propanamide], on CDK12 [1], the “Ratio CDK7/CDK12” value is recorded as 7.64 and the pIC50 is 5.88. The pIC50 at CDK7 was under 5.00. For the same compound, at CDK13, the pIC50 is 7.11 and the “Ratio CDK7/CDK13” value stood at 129.87. This compound had a pKd at CDK12 [2] of 7.00 to 7.60.
Take `C=CC(=O)NC1CCC(c2ccc(C(C)C(=O)Nc3cc(C4CC4)n[nH]3)cc2)CC1` (single isomer, unassigned) [Compound 10, N-(4-(4-(1-((5-cyclopropyl-1H-pyrazol-3-yl)amino)-1-oxopropan-2-yl)phenyl)cyclohexyl)acrylamide]: the pIC50 against CDK12 [1] was 6.13; at CDK7, 5.26; at CDK13, 7.74. Besides, at CDK12 [2], the pKd is over 7.60.
The matching figures for `C=CC(=O)NC1CCC(c2ccc(C(C)C(=O)Nc3cc(C4CC4)n[nH]3)cc2)CC1` (single isomer, unassigned) [Compound 11, N-(4-(4-(1-((5-cyclopropyl-1H-pyrazol-3-yl)amino)-1-oxopropan-2-yl)phenyl)cyclohexyl)acrylamide]: 5.99, 5.44, 7.35 and 7.00 to 7.60.
The corresponding values for `C=CC(=O)N1CCN(c2ccc(C(C)C(=O)Nc3cc(C4CC4)[nH]n3)cc2)CC1` (single isomer, unassigned) [Compound 18, 2-(4-(4-acryloylpiperazin-1-yl)phenyl)-N-(5-cyclopropyl-1H-pyrazol-3-yl)propanamide] are 6.62, 5.63, 7.93 and 7.00 to 7.60.
Turning to `C=CC(=O)N1CC=C(c2ccc(C(C(=O)Nc3cc(C4CC4)[nH]n3)C(C)C)cc2)CC1` (stereo not drawn) [Compound 3, 2-(4-(1-acryloyl-1,2,3,6-tetrahydropyridin-4-yl)phenyl)-N-(5-cyclopropyl-1H-pyrazol-3-yl)-3-methylbutanamide], the pIC50 at CDK7 was 6.30. Besides, at CDK13, the pIC50 is 7.00 and the “Ratio CDK7/CDK13” value amounted to 5.0. Besides, the pKd at CDK12 [2] was under 7.00.
Consider `C=CC(=O)N1CC=C(c2ccc(C(C)C(=O)Nc3cc(C4CC4)[nH]n3)cn2)CC1` (stereo not drawn) [Compound 4, 2-(1′-acryloyl-1′,2′,3′,6′-tetrahydro-[2,4′-bipyridin]-5-yl)-N-(5-cyclopropyl-1H-pyrazol-3-yl)propanamide], for which, at CDK12 [1], the “Ratio CDK7/CDK12” value was 23.75 and the pIC50 is 7.14. In addition, the negative-log IC50 (pIC50) on CDK7 was 5.77. At CDK13, the pIC50 was 8.52 and the “Ratio CDK7/CDK13” value turned out to be 570.0. Moreover, the pKd on CDK12 [2] was over 7.60.
Consider `C=CC(=O)N1CC=C(c2ccc(C(C(=O)Nc3cc(C4CC4)[nH]n3)C(C)C)cn2)CC1` (stereo not drawn) [Compound 7, 2-(1′-acryloyl-1′,2′,3′,6′-tetrahydro-[2,4′-bipyridin]-5-yl)-N-(5-cyclopropyl-1H-pyrazol-3-yl)-3-methylbutanamide], for which the values for the pIC50 on CDK7 and at CDK13 were 6.13 and 6.40, respectively. For the same compound, the “Ratio CDK7/CDK13” value at CDK13 was determined as 1.86. At CDK12 [2], this compound showed a pKd of under 7.00.
On to `C=CC(=O)NC1CC=C(c2ccc(C(C)C(=O)Nc3cc(C4CC4)[nH]n3)cc2)CC1` (stereo not drawn) [Compound 8, N-(4′-(1 ((5-cyclopropyl-1H-pyrazol-3-yl)amino)-1-oxopropan-2-yl)-2,3,4,5-tetrahydro-[1,1′-biphenyl]-4-yl)acrylamide], for which the pIC50 is 6.42 at CDK12 [1] and 7.72 at CDK13. In addition, the negative logarithm of the Kd (pKd) at CDK12 [2] is 7.00 to 7.60.
For `C=CC(=O)N1CCC=C(c2ccc(C(C)C(=O)Nc3cc(C4CC4)[nH]n3)cc2)CC1` (stereo not drawn) [Compound 9, 2-(4-(1-acryloyl-2,3,6,7-tetrahydro-1H-azepin-4-yl)phenyl)-N-(5-cyclopropyl-1H-pyrazol-3-yl)propanamide], at CDK12 [1], the “Ratio CDK7/CDK12” value worked out at 27.43 and the pIC50 is 6.62. The pIC50 on CDK7 was 5.18. Also, on CDK13, the pIC50 was 7.68 and the “Ratio CDK7/CDK13” value is reported as 313.57. The compound also had a pKd at CDK12 [2] of 7.00 to 7.60.
Turning to `C=CC(=O)N1CCN(c2ccc(C(C)C(=O)Nc3cc(C4CC4)[nH]n3)cn2)CC1` (stereo not drawn) [Compound 20, 2-(6-(4-acryloylpiperazin-1-yl)pyridin-3-yl)-N-(5-cyclopropyl-1H-pyrazol-3-yl)propanamide], on CDK12 [1], the “Ratio CDK7/CDK12” value was found to be 21.11 and the pIC50 was 7.00. For the same compound, the negative-log IC50 (pIC50) on CDK7 was 5.68. Further, at CDK13, the pIC50 was 7.03 and the “Ratio CDK7/CDK13” value came out at 22.23. On CDK12 [2], this compound showed a pKd of over 7.60.
For the compound `C=CC(=O)NC1CCN(c2ccc(C(C)C(=O)Nc3cc(C4CC4)[nH]n3)cc2)CC1` (stereo not drawn) [Compound 21, N-(1-(4-(1-((5-cyclopropyl-1H-pyrazol-3-yl)amino)-1-oxopropan-2-yl)phenyl)piperidin-4-yl)acrylamide], the pIC50 was 6.63 against CDK12 [1] and 7.14 at CDK13. The same compound gave a negative logarithm of the Kd (pKd) on CDK12 [2] of over 7.60.
As for `C=CC(=O)N1CCC=C(c2ccc(C(C)C(=O)Nc3cc(C4CC4)[nH]n3)cn2)C1` (stereo not drawn) [Compound 35, 2-(1′-acryloyl-1′,2′,5′,6′-tetrahydro-[2,3′-bipyridin]-5-yl)-N-(5-cyclopropyl-1H-pyrazol-3-yl)propanamide], at CDK12 [1], the “Ratio CDK7/CDK12” value was 5.1 and the pIC50 was 7.52. In addition, the pIC50 on CDK7 is 6.82. In addition, at CDK13, the pIC50 was 8.22 and the “Ratio CDK7/CDK13” value turned out to be 25.5. On CDK12 [2], this compound showed a pKd of over 7.60.
Turning to `C=CC(=O)N1CC=C(c2ccc(C(C)C(=O)Nc3cc(C4CC4)[nH]n3)cn2)C1` (stereo not drawn) [Compound 46, 2-(6-(1-acryloyl-2,5-dihydro-1H-pyrrol-3-yl)pyridin-3-yl)-N-(5-cyclopropyl-1H-pyrazol-3-yl)propanamide], the pIC50 on CDK12 [1] is 7.49; at CDK13, 8.16. The “CDK12 Target Occupancy (Tocc50) μM in Jurkat cells” value (“CDK12 Target Occupancy (Tocc50) μM” below) at CDK12 [3] was 0.003 µM.
The corresponding values for `C#CC(=O)N1CCC=C(c2ccc(CC(=O)Nc3cc(C4CC4)[nH]n3)cn2)C1` [Compound 58, N-(5-cyclopropyl-1H-pyrazol-3-yl)-2-(1′-propioloyl-1′,2′,5′,6′-tetrahydro-[2,3′-bipyridin]-5-yl)acetamide] are 7.31, 7.08 and 0.0097 µM.
For the compound `C#CC(=O)N1CC=C(c2ccc(CC(=O)Nc3cc(C4CC4)[nH]n3)cn2)C1` [Compound 60, N-(5-cyclopropyl-1H-pyrazol-3-yl)-2-(6-(1-propioloyl-2,5-dihydro-1H-pyrrol-3-yl)pyridin-3-yl)acetamide], the pIC50 at CDK12 [1] is 7.92. The “CDK12 Target Occupancy (Tocc50) μM” value on CDK12 [3] came out at 0.0088 µM.
Compound `N#CN1CCC=C(c2ccc(CC(=O)Nc3cc(C4CC4)[nH]n3)cn2)C1` [Compound 61, 2-(1′-cyano-1′,2′,5′,6′-tetrahydro-[2,3′-bipyridin]-5-yl)-N-(5-cyclopropyl-1H-pyrazol-3-yl)acetamide] gave a pIC50 at CDK12 [1] of 8.22. The “CDK12 Target Occupancy (Tocc50) μM” value at CDK12 [3] came out at 0.007 µM.
